# Where a name gives a salt, the structure may show the parent alone. Read-outs that look alike come from different tables or passages of the source.
# Columns and labels:
# HTT mRNA = assay: RT-qPCR splicing assay, HTT canonical (CJ) and alternative (AJ) junction mRNA; type: cell-based; conditions: Homo sapiens; for IC50: read-out: HTT CJ IC50; for AC50: read-out: HTT AJ AC50
# Description: Compounds described herein were used to modulate RNA transcript abundance in cells. The expression of a target mRNA was measured by detecting the formation of an exon-exon junction in the canonical transcript (CJ). A compound mediated exon-inclusion event was detected by observing an increase in formation of a new junction with an alternative exon (AJ). Real-time qPCR assays were used to detect these splicing switches and interrogate the potency of various compounds towards different target genes. A high-throughput real time quantitative PCR (RT-qPCR) assay was developed to measure these two isoforms of the mRNA (CJ and AJ) for exemplary genes, such as HTT, SMN2, and MYB, together with a control housekeeping gene, GAPDH or GUSB or PPIA, used for normalization. Briefly, the A673 or K562 cell line was treated with various compounds described herein (e.g., compounds of Formula (I)). After treatment, the levels of the HTT, MYB, or SMN2 mRNA targets were determined from each sample of cell lysate by cDNA synthesis followed by qPCR.
# • Cells-to-CT 1-step kit: ThermoFisher A25602, Cells-to-CT lysis reagent: ThermoFisher 4391851C, TaqMan™ Fast Virus 1-Step Master Mix: ThermoFisher 4444436 • GAPDH: VIC-PL, ThermoFisher 4326317E (Assay: Hs99999905_m1)—used for K562/suspension cell lines • GUSB: VIC-PL, ThermoFisher 4326320E (Assay: Hs99999908_m1)—used for K562/suspension cell lines • PPIA: VIC-PL, ThermoFisher 4326316E (Assay: Hs99999904_m1)—used for A673/adherent cell lines
# The A673 cell line was cultured in DMEM with 10% FBS. Cells were diluted with full growth media and plated in a 96-well plate (15,000 cells in 100 ul media per well). The plate was incubated at 37° C. with 5% CO2 for 24 hours to allow cells to adhere. An 11-point 3-fold serial dilution of the compounds was made in DMSO then diluted in media in an intermediate plate. Compounds were transferred from the intermediate plate to the cell plate with the top dose at a final concentration of 10 uM in the well. Final DMSO concentration was kept at or below 0.25%. The cell plate was returned to the incubator at 37° C. with 5% CO2 for an additional 24 hours.
# The K562 cell line was cultured in IMDM with 10% FBS. For K562, cells were diluted with full growth media and plated in either a 96-well plate (50,000 cells in 50 uL media per well) or a 384-well plate (8,000-40,000 cells in 45 uL media per well). An 11-point 3-fold serial dilution of the compounds were made in DMSO then diluted in media in an intermediate plate. Compound was transferred from the intermediate plate to the cell plate with the top dose at a final concentration of 10 uM in the well. Final DMSO concentration was kept at or below 0.25%. Final volume was 100 uL for 96-well plate and 50 uL for 384-well plate. The cell plate was then placed in an incubator at 37° C. with 5% CO2 for 24 hours.
# The cells were then gently washed with 50 uL-100 uL cold PBS before proceeding to addition of lysis buffer. 30 uL-50 μL of room temperature lysis buffer with DNAse I (and optionally RNAsin) was added to each well. Cells were shaken/mixed thoroughly at room temperature for 5-10 minutes for lysis to take place and then 3 uL-5 μL of room temperature stop solution was added and wells were shaken/mixed again. After 2-5 minutes, the cell lysate plate was transferred to ice for RT-qPCR reaction setup. The lysates could also be frozen at −80° C. for later use.
# In some cases, a direct lysis buffer was used. An appropriate volume of 3× lysis buffer (10 mM Tris, 150 mM NaCl, 1.5%-2.5% Igepal and 0.1-1 U/uL RNAsin, pH 7.4) was directly added to either K562 or A673 cells in media and mixed by pipetting 3 times. The plates were then incubated at room temperature with shaking/rocking for 20-50 minutes to allow for lysis to take place. After this time, the cell lysate plate was transferred to ice to set up for the RT-qPCR reactions. The lysates could also be frozen at −80° C. for later use. […]
# [1] = test system: HiBiT-tagged MYB protein in K562 cells; assay: HiBit protein abundance assay, MYB; type: cell-based, human; conditions: K562 HiBiT-modified cells, 24 hours, luminescence
# Description: Compounds described herein were used to screen for effects on quantitative protein abundance using a HiBit assay system (Promega). Quantitative protein abundance was determined by measuring the protein levels of HiBit-tagged protein targets expressed in cell culture via luminescence using the Nano-Glo HiBiT Lytic Detection System, which uses a split complementation assay format to reconstitute NanoBiT enzyme to generate a luminescent signal. A protein abundance assay was developed such that endogenous protein targets could be modified with the HiBiT peptide tag and their abundance could be assessed after compound treatment. Briefly, K562 cell lines containing a HiBiT-modification were treated with various compounds described herein (e.g., compounds of Formulas (I), (II), or (III)). After treatment for 24 hours, the protein abundance of a specific target was determined by measuring luminescence. • Promega Nano-Glo HiBiT Lytic Detection System (cat #N3030) • Corning 384-well TC-treated microplates (cat #3570) • Synthego Engineered Cells Knock-In Clones [table] Cells were maintained in IMDM with 10% FBS. Before the assay, cells were diluted with phenolphthalein-free growth media (IMDM+1% FBS media) and were seeded in a 384-well plate at a density of 10000 cells/well (for each cell line listed in Table 6). Each compound was prepared as a 10-point 3-fold serial dilution in DMSO with the top dose at a final concentration of 10 μM in the well. Unmodified K562 cells were added at the previously specified density with DMSO to serve as an assay baseline and positive control (PC) and DMSO only with the respective modified cell lines was added to the negative control (NC) columns. Final DMSO concentration was kept at or below 0.25%. Treated cell plates were placed in an incubator at 37° C. with 5% CO2 for 24 hours. After 24 hours, 25 μL of Complete HiBit Lytic reagent was added to each well at room temperature (e.g. one plate requiring 10 mL Lytic Buffer, 100 μL LgBiT Protein, 200 μL Lytic Substrate), shaken for 5 minutes at 600 RPM, then left to sit for 10 minutes for signal to stabilize before reading on a Spark Cyto plate reader (Tecan) with a 500 ms measurement time. To determine compound effects on protein abundance of each target in Table 6, the percent response for each respective cell line was calculated at each compound concentration as follows: For the normalized response at each concentration, a four-parameter logistical regression was fit to the data and the response was interpolated at the 50% value to determine a concentration for protein abundance at 50% (IC50) the untreated control.
# [2] = decrease in CJ mRNA levels, larger panel of genes, Table 3
# [3] = decrease in canonical junction mRNA, A673 or K562 cells, 24 hours treatment, Table 2
# [4] = increase in alternative junction mRNA, A673 or K562 cells, 24 hours treatment, Table 2
SMILES,IC50 (HTT mRNA; [2]) [nM],IC50 (HTT mRNA; [3]) [nM],IC50 [1] [nM],AC50 (HTT mRNA; [4]) [nM],AC50 (HTT mRNA; 24 h) [nM],IC50 (HTT mRNA; 24 h) [nM],IC50 (HTT mRNA) [nM]
"Cc1c(O)c(-c2ccc3nn(C4CCNCC4)cc3n2)cc2cn(C)nc12 [Compound 109, 2,7-dimethyl-5-[2-(4-piperidyl)pyrazolo[4,3-b]pyridin-5-yl]indazol-6-ol]",< 100,< 100,100 to 1000,100 to 1000,,,
"Cn1cc2cc(-c3ccc4nn(C5CCNCC5)cc4n3)c(O)cc2n1 [Compound 110, 2-methyl-5-[2-(4-piperidyl)pyrazolo[4,3-b]pyridin-5-yl]indazol-6-ol]",100 to 1000,100 to 1000,100 to 1000,1000 to 10000,,,
"Cc1cc(-n2cc3cc(N4CCNCC4)cc(F)c3n2)cc2cn(C)nc12 [Compound 117, 2-(2,7-dimethylindazol-5-yl)-7-fluoro-5-piperazin-1-yl-indazole]",> 10000,> 10000,1000 to 10000,1000 to 10000,,,
"Cc1nc2c(C)cc(-n3cc4cc(N5CCNCC5)cc(F)c4n3)cc2o1 [Compound 119, 6-(7-fluoro-5-piperazin-1-yl-indazol-2-yl)-2,4-dimethyl-1,3-benzoxazole]",> 10000,> 10000,1000 to 10000,> 10000,,,
"Cc1cn2nc(-n3cc4cc(C5CCNCC5)cc(F)c4n3)cc(C)c2n1 [Compound 120, 6-[7-fluoro-5-(4-piperidyl)indazol-2-yl]-2,8-dimethyl-imidazo[1,2-b]pyridazine]",1000 to 10000,1000 to 10000,1000 to 10000,> 10000,,,
"Cc1cc(-n2cc3cc(N4CCNCC4)ccc3n2)cc2cn(C)nc12 [Compound 121, 2,7-dimethyl-5-(5-piperazin-1-ylindazol-2-yl)indazole]",> 10000,> 10000,> 10000,> 10000,,,
"Cc1cn2nc(-c3cc(F)c4nn(C5CCNCC5)cc4c3)cc(C)c2n1 [Compound 122, 6-(7-fluoro-2-(piperidin-4-yl)-2H-indazol-5-yl)-2,8-dimethylimidazo [1,2-b]pyridazine hydrochloride salt]",,,< 100,,< 100,< 100,< 100

# The next lines start with results.
IC50 (HTT mRNA; [2]) [nM],IC50 (HTT mRNA; [3]) [nM],IC50 [1] [nM],SMILES,AC50 (HTT mRNA; [4]) [nM],AC50 (HTT mRNA; 24 h) [nM],IC50 (HTT mRNA; 24 h) [nM],IC50 (HTT mRNA) [nM]
100 to 1000,100 to 1000,1000 to 10000,"Cn1cc2cc(-c3cc(F)c4nn(C5CCNCC5)nc4c3)cc(F)c2n1 [Compound 103, 4-fluoro-6-(7-fluoro-2-methyl-indazol-5-yl)-2-(4-piperidyl) benzotriazole]",100 to 1000,,,
100 to 1000,100 to 1000,100 to 1000,"CCN1CCC(n2cc3cc(-c4cc(F)c5nn(C)cc5c4)cc(F)c3n2)CC1 [Compound 104, 2-(1-ethyl-4-piperidyl)-7-fluoro-5-(7-fluoro-2-methyl-indazol-5-yl)indazole]",100 to 1000,,,
100 to 1000,100 to 1000,100 to 1000,"Cn1cc2cc(-c3ccc4nn(C5CCNCC5)cc4c3)cc(F)c2n1 [Compound 105, 7-fluoro-2-methyl-5-[2-(4-piperidyl)indazol-5-yl]indazole]",100 to 1000,,,
100 to 1000,100 to 1000,100 to 1000,"Cn1cc2cc(-c3ccc4nn(C5CCNCC5)cc4n3)c(O)c(F)c2n1 [Compound 107, 7-fluoro-2-methyl-5-[2-(4-piperidyl)pyrazolo [4,3-b]pyridin-5-yl]indazol-6-ol]",100 to 1000,,,
100 to 1000,100 to 1000,100 to 1000,"Cn1cc2cc(-c3cc(F)c4nn(C5CCNC6(CC6)C5)cc4c3)cc(F)c2n1 (centres unmarked) [Compound 108, 2-(4-azaspiro[2.5]octan-7-yl)-7-fluoro-5-(7-fluoro-2-methyl-indazol-5-yl)indazole]",100 to 1000,,,
1000 to 10000,1000 to 10000,1000 to 10000,"Cc1c(O)c(-c2ccc3nn(C4CCNCC4)nc3n2)cc2cn(C)nc12 [Compound 113, 2,7-dimethyl-5-[2-(4-piperidyl)triazolo[4,5-b]pyridin-5-yl]indazol-6-ol]",1000 to 10000,,,
1000 to 10000,1000 to 10000,1000 to 10000,"Cc1cc(-n2cc3cc(C4CCNCC4)cc(F)c3n2)cc2cn(C)nc12 [Compound 115, 2-(2,7-dimethylindazol-5-yl)-7-fluoro-5-(4-piperidyl)indazole]",1000 to 10000,,,
100 to 1000,100 to 1000,1000 to 10000,"Cc1nc2c(C)c(O)c(-c3cc(F)c4nn(C5CCNCC5)cc4c3)cc2o1 [Compound 123, 6-[7-fluoro-2-(4-piperidyl)indazol-5-yl]-2,4-dimethyl-1,3-benzoxazol-5-ol]",100 to 1000,,,
< 100,< 100,100 to 1000,"Cc1cn2nc(-c3cc(F)c4nn(C5CCNCC5)cc4c3)cc2c(C)n1 [Compound 124, 2-[7-fluoro-2-(4-piperidyl)indazol-5-yl]-4,6-dimethyl-pyrazolo[1,5-a]pyrazine]",< 100,,,
100 to 1000,100 to 1000,100 to 1000,"Cc1cn2cc(-c3cc(F)c4nn(C5CCNCC5)cc4c3)cc(C)c2n1 [Compound 125, 5-(2,8-dimethylimidazo[1,2-a]pyridin-6-yl)-7-fluoro-2-(4-piperidyl)indazole]",100 to 1000,,,

# From patent US20250082633A1, “COMPOUNDS AND METHODS FOR MODULATING SPLICING” (REMIX THERAPEUTICS INC., priority 2021, published 2025)
